Data from patent US20050058600A1, “3,3'-Diindolylmethane antiandrogenic compositions” (priority 2003, published 2005).

What was measured:
AR [1] = molecular target: T1, AR (Homo sapiens, UniProt P10275); assay: pPSA-Luc / MMTV-Luc reporter assay in PC-3 cells with or without AR expression vector; format: cell-based; details: PC-3 co-transfected with AR expression vector; pPSA-Luc, same with MMTV-Luc
T1 construct: expressed in transfected cells; host or cells: PC-3
T1 sequence (P10275 1-920): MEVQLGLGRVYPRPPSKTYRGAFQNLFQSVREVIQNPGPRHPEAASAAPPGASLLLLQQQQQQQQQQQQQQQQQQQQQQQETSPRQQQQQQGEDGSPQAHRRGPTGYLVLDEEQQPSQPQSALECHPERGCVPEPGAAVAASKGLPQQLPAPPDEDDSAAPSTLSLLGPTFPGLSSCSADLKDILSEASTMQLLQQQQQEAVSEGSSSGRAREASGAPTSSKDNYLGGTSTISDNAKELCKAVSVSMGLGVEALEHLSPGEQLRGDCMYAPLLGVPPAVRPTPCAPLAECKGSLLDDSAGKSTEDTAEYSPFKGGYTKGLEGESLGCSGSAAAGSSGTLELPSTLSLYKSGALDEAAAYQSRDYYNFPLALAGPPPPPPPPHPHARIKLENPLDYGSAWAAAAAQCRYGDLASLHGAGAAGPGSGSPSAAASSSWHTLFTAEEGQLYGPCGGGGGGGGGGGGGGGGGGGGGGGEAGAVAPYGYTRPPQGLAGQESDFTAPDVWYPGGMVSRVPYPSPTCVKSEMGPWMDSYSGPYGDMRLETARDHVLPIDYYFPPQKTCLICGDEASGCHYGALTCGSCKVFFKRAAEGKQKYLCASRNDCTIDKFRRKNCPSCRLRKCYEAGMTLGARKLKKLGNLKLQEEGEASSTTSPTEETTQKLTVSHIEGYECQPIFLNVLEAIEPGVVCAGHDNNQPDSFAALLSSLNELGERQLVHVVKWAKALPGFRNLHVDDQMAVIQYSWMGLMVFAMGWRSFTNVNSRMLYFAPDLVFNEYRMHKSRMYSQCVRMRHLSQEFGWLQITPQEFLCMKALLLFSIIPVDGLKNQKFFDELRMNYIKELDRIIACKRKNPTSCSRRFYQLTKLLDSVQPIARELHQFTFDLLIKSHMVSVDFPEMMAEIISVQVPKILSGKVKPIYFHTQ
Description: (§1) Plasmid Reporters and Expression Vectors. The ARE responsive luciferase reporter plasmid, pPSA-630 luciferase (pPSA-Luc) was prepared as previously described (29). pPSA-Luc contains the PSA promoter region (−630 to 12) with three AREs, all of which are critical to the activity of the pPSA-Luc promoter. The MMTV-Luc contains one consensus ARE and the expression vector, pCMV-hAR constitutively expresses a fully functional human androgen receptor. The pCMV-GFP-rAR was prepared as previously described (30).
(§2) Transient Transfections with Reporters and Luciferase Assay. LNCaP and PC-3 cells were transfected, with some modifications, as previously described (20). For AR transactivation, cells were transfected with 0.1 μg of MMTV-Luc or pPSA-Luc per plate. Co-transfection experiments with pCMV-hAR or pCMV-GFP-rAR, 0.1 μg per plate was also used. For experiments involving GFP fluorescence imaging, treatments were not added until 30 h after transfection.

AR [2] = assay: as above; format: cell-based, human
Description: as §1, §2

[3] = system: BP-induced pulmonary adenomas; details: mice; cited from earlier work
PSA gene expression = assay: Northern blot of endogenous PSA mRNA in LNCaP cells; format: cell-based, human
Description: RNA Extraction, mRNA Purification and Northern Hybridization. mRNA isolation and Northern blot analyses were conducted as described previously (20, 31). PSA cDNA and the cDNA probes were biotinylated using NEBlot Phototope kit (New England Biolabs, Beverly, Mass.), purified via precipitation with 3 M sodium acetate (pH 5.2) and washed with 70% ethanol. After hybridization with cDNA probes, the membrane was incubated with streptavidin then biotinylated with alkaline phosphatase followed by the Phototope-CDP-Star assay (New England Biolabs, Beverly, Mass.), and autoradiographed. The amount of mRNA was quantified by Gel Densitometer (Bio-Rad) and normalized with β-actin as an internal control.

c1ccc2c(Cc3c[nH]c4ccccc34)c[nH]c2c1 [DIM, 3,3′-diindolylmethane]
inhibition of DHT-induced transactivation (AR [1]): concentration-dependent inhibition | effect on pPSA-Luc reporter (AR [2]; PC-3 without co-transfection of an AR expression vector): has no effect | transactivation of reporter genes by compound alone (AR [2]; either cell line, with or without co-transfection of wild-type AR): did not induce transactivation | incidence of BP-induced pulmonary adenomas [3]: reduced the incidence | inhibition of PSA mRNA induction by DHT (PSA gene expression; 24 h co-treatment with DIM): up to 80% | decrease in PSA mRNA levels (PSA gene expression; DIM treatment, concentration- and time-dependent): up to 70%
